From article PMC7961048, “Hierarchized phosphotarget binding by the seven human 14-3-3 isoforms” (Nature Communications, 2021)

Experiments:
Format in all cases: binding
14-3-3β = target: T1, 14-3-3β (Homo sapiens, UniProt P31946); assay: biochemical
T1 construct: cDNAs encoding other full-length 14-3-3 isoforms β, τ, η, and σ were obtained as codon-optimized; made in house; host or cells: E. coli BL21(DE3)
T1 sequence (P31946 1-246): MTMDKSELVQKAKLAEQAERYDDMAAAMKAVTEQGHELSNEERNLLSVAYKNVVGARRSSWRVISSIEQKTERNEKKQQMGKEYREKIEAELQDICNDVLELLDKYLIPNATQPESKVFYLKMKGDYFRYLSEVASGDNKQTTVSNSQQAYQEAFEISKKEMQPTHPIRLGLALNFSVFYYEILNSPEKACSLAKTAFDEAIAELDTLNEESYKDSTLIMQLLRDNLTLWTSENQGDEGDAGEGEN
Description: (§1) The seven full-length human 14-3-3 isoforms, produced as fusions to a maltose-binding protein (MBP), were analyzed for their interaction with four phospho-PBMs from E6 proteins of HPV types 16, 18, 33, and 35 belonging to subgroups 1 and 2 (as defined in Supplementary Fig. 1). For comparison, we also measured two non-viral phospho-PBMs originating from protein kinase RSK1[28]. We used a competitive fluorescence polarization (FP) assay that measures the displacement of a fluorescent tracer phosphopeptide (here, derived from the HSPB6 protein) bound beforehand to 14-3-3, by an increasing amount of the peptide of interest.
(§2) For affinity measurements, full-length human 14-3-3 constructs with an N-terminal MBP fusion were used. Plasmids containing the cDNAs of the full-length 14-3-3 isoforms ε, γ, and ζ were received from Prof. Lawrence Banks. cDNAs encoding other full-length 14-3-3 isoforms β, τ, η, and σ were obtained as codon-optimized for E. coli expression synthetic genes from IDT Technologies (Coralville, Iowa, USA). All 14-3-3 isoforms were fused via a three-alanine linker to the C terminus of a mutant MBP carrying the following amino acid substitutions facilitating crystallization: D83A, K84A, K240A, E360A, K363A, and D364A[62]. All resulting clones were verified by sequencing. The MBP-fused proteins were expressed in E. coli BL21(DE3) with IPTG induction. Proteins were affinity purified on an amylose column and were further purified by ion-exchange chromatography (HiTrap Q HP, GE Healthcare). Unfused 14-3-3 isoforms devoid of the flexible C-terminal tails (14-3-3βΔC, 14-3-3τΔC 14-3-3εΔC) were expressed using IPTG induction and purified by subtractive IMAC and SEC[40]. Protein concentrations were determined by UV spectroscopy. The samples were supplemented with glycerol and TCEP before aliquoting and freezing in liquid nitrogen.
(§3) Unless otherwise stated, all phosphopeptide-binding measurements were performed using full-length 14-3-3 proteins fused to the C terminus of MBP, favoring optimal solubility and a standardized parallel purification scheme.
(§4) FP was measured with a PHERAstar (BMG Labtech, Offenburg, Germany) microplate reader by using 485 ± 20 and 528 ± 20 nm band-pass filters (for excitation and emission, respectively). In direct FP measurements, a dilution series of the 14-3-3 protein was prepared in 96-well plates (96-well skirted PCR plate, 4ti-0740, 4titude, Wotton, UK) in a 20 mM HEPES pH 7.5 buffer containing 150 mM NaCl, 0.5 mM TCEP, 0.01% Tween 20, 50 nM fluorescently labeled fpB6 peptide, and 100 μM FSC, if indicated. The volume of the dilution series was 40 μl, which was later divided into three technical replicates of 10 μl upon transferring to 384-well micro-plates (low binding microplate, 384 well, E18063G5, Greiner Bio-One, Kremsmünster, Austria). In total, polarization of the probe was measured at eight different protein concentrations (whereas one contained no protein and corresponded to the free peptide). In competitive FP measurements, the same buffer was supplemented with the protein to achieve a complex formation of 60–80%, based on the direct titration. Then, this mixture was used for creating a dilution series of the unlabeled competitor (i.e., the studied peptides) and the measurement was carried out identically as in the direct experiment.
(§5) All FP experiments were done in triplicates. Analysis of FP experiments were carried out using ProFit, an in-house developed, Python-based fitting program. ProFit utilizes a Monte Carlo approach to take into account experimental variability. It generates hundreds of simulated datasets, based on the experimental data variance and fits direct and competitive measurements in pairs.

14-3-3γ = target: T2, 14-3-3γ (Homo sapiens, UniProt P61981); assay: biochemical
T2 construct: full-length human 14-3-3 constructs with an N-terminal MBP fusion were used; made in house; host or cells: E. coli BL21(DE3)
T2 sequence (P61981 1-247): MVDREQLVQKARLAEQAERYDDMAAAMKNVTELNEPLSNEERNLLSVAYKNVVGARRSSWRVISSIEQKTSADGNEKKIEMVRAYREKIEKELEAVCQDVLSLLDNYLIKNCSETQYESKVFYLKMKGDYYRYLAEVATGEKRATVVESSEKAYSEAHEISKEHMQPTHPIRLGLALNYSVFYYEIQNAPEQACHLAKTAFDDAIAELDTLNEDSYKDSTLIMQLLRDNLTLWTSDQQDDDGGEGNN
Description: as §1, §2, §3, §4, §5

[1] = target: seven human 14-3-3 isoforms; assay: Affinities averaged or compared across the 14-3-3 family (ΔΔGav, KD ratios, affinity maps)
Description: Former studies have measured the binding of the seven human 14-3-3 isoforms to unrelated phospho-motifs derived from Cystic Fibrosis Transmembrane Conductance Regulator (CFTR), Leucine-Rich Repeat Kinase 2 (LRRK2), Potassium channel subfamily K members (TASK1/3), C-Raf, the p65 subunit of the NF-κB transcription factor, and from Ubiquitin carboxyl-terminal hydrolase 8 (USP8), representing a wide variety of different 14-3-3-binding motifs, including C-terminal, internal, monovalent, or divalent motifs[40],[44]–[48].
(gray background). The color scale is either based on affinity values or on KD ratios. √ denotes affinities weaker than the limit of quantitation of the experimental assays. b Same map as in a, normalized to the strongest 14-3-3-binding motif. […] Source data are provided as a Source Data file.
All binding data and the obtained fits are provided as Supplementary Data File 1.

Question: With `CC(C)C[C@H](NC(=O)[C@H](CCC(N)=O)NC(=O)[C@@H](NC(=O)[C@H](CCC(=O)O)NC(=O)[C@H](CCCNC(=N)N)NC(=O)[C@H](CCCNC(=N)N)NC(=O)[C@@H](NC(=O)[C@H](CCCNC(=N)N)NC(=O)[C@H](CO)NC(=O)[C@H](CO)NC(=O)CCC(=O)NCCCOCCOCCOCCCNC(=O)CCCC[C@@H]1SC[C@@H]2NC(=O)N[C@@H]21)[C@@H](C)O)[C@@H](C)OP(=O)(O)O)C(=O)O` [pHPV16E6] as the compound, how does the Kd (14-3-3β) read?
Answer: The Kd was 159 ± 45 µM.

Question: And the Kd (14-3-3γ)?
Answer: The Kd was 37.2 ± 3 µM.

Question: And the “KD ratios, compared to LRRK2 pS910/pS935, 14-3-3β” value ([1]; Figure 4 panel b, 14-3-3β)?
Answer: Its value is 7536.

Question: What about the “KD ratios, compared to LRRK2 pS910/pS935, 14-3-3γ” value ([1]; Figure 4 panel b, 14-3-3γ) of the same compound?
Answer: Its value is 11625.

Question: What about the “KD ratios, compared to LRRK2 pS910/pS935, 14-3-3ζ” value ([1]; Figure 4 panel b, 14-3-3ζ) of the same compound?
Answer: Its value is 15333.

Question: What about the “KD ratios, compared to LRRK2 pS910/pS935, 14-3-3η” value ([1]; Figure 4 panel b, 14-3-3η) of the same compound?
Answer: Its value is 16771.

Question: And the “KD ratios, compared to LRRK2 pS910/pS935, 14-3-3τ” value ([1]; Figure 4 panel b, 14-3-3τ)?
Answer: Its value is 15158.

Question: What about the “KD ratios, compared to LRRK2 pS910/pS935, average” value ([1]; Figure 4 panel b, average over the isoforms) of the same compound?
Answer: Its value is 13000.

Question: What about the “KD ratios, compared to 14-3-3γ, 14-3-3β” value ([1]; Figure 4 panel c, 14-3-3β) of the same compound?
Answer: The value was 4.27.

Question: And the “KD ratios, compared to 14-3-3γ, 14-3-3γ” value ([1]; Figure 4 panel c, 14-3-3γ)?
Answer: Its value is 1.00.

Question: What about the “KD ratios, compared to 14-3-3γ, 14-3-3ζ” value ([1]; Figure 4 panel c, 14-3-3ζ) of the same compound?
Answer: Its value is 1.98.

Question: And the “KD ratios, compared to 14-3-3γ, 14-3-3η” value ([1]; Figure 4 panel c, 14-3-3η)?
Answer: The value was 2.16.

Question: What about the “KD ratios, compared to 14-3-3γ, 14-3-3τ” value ([1]; Figure 4 panel c, 14-3-3τ) of the same compound?
Answer: Its value is 3.87.

Question: And the “binding to 14-3-3 proteins” value ([1]; competitive FP, seven MBP-fused full-length 14-3-3 isoforms, result in words)?
Answer: The value was “detectably bound”.
